Reference: PubChem BioAssay (NCI)
Values joined by “and” are separate entries in the source; they are usually repeats but may differ in a detail not shown here. Identical values can stand only once.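 All cell lines were grown in 96-well plates and treated with compound for 48 hours. GI50 = concentration required for 50% inhibition of growth. Definition used: TGI = concentration required for complete inhibition of growth.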

Tests used:
Assay in all cases: growth of human tumour cells (NCI), 48 h
[1] = test system: A549 NSCLC
[2] = test system: CAKI-1 renal
[3] = test system: HCT-15 colon
[4] = test system: HOP-62 NSCLC
[5] = test system: M14 melanoma
[6] = test system: MALME-3M melanoma
[7] = test system: NCI-H460 lung
[8] = test system: NCI-H522 lung
[9] = test system: SK-OV-3 ovarian
[10] = test system: UACC-257 melanoma

| Compound | TGI [1] | TGI [2] | TGI [3] | TGI [4] | TGI [5] | TGI [6] | TGI [7] | TGI [8] | TGI [9] | TGI [10] | GI50 [1] | GI50 [2] | GI50 [3] | GI50 [4] | GI50 [5] | GI50 [6] | GI50 [7] | GI50 [8] | GI50 [9] | GI50 [10] |
| --- | --- | --- | --- | --- | --- | --- | --- | --- | --- | --- | --- | --- | --- | --- | --- | --- | --- | --- | --- | --- |
| CC(=O)CC(=O)Nc1ccc(OS(N)(=O)=O)cc1 | > 100 µM | > 100 µM | > 100 µM | > 100 µM | > 100 µM | > 100 µM | > 100 µM | > 100 µM | > 100 µM | > 100 µM |  |  |  |  |  |  |  |  |  |  |
| CC(=O)OC1C(C)OC(Oc2c(-c3ccc(O)cc3)oc3cc(O)cc(O)c3c2=O)C(O)C1OC(C)=O (stereo unspecified) | > 100 µM | > 100 µM | > 100 µM | > 100 µM | > 100 µM | > 75.2 µM | > 100 µM | 47.4 µM | > 100 µM | > 79.9 µM | 49.8 µM | 41.4 µM | 52.3 µM | 35.9 µM | 33.5 µM | 21.3 µM | 32.5 µM | 18.5 µM | 56.4 µM | 27.6 µM |
| CC1=C(C(=O)Nc2cc(F)c(F)cc2F)C(c2ccc(N(C)C)cc2)C(C(=O)Nc2cc(F)c(F)cc2F)=C(C)N1 | > 60.5 µM | > 67.7 µM | > 100 µM | > 100 µM | > 100 µM | > 100 µM | > 100 µM | 51 µM | > 100 µM | > 82.8 µM |  |  | 28.6 µM |  |  |  |  |  |  |  |
| COc1cccc2c1C(=O)c1c(O)c3c(c(O)c1C2=O)C[C@@](O)(C(=O)CO)C[C@@H]3OC1CC2C(OCN2CN2COC3C(C)OC(O[C@H]4C[C@](O)(C(=O)CO)Cc5c(O)c6c(c(O)c54)C(=O)c4c(OC)cccc4C6=O)CC32)C(C)O1 (stereo partly specified) |  | 0.00708 µM | > 1 µM | 0.103 µM | 0.0405 µM | 0.0399 µM | 0.0864 µM | 0.0238 µM | 0.0207 µM | 0.0208 µM | 0.0056 µM | 0.000878 µM | 0.0278 µM | 0.00609 µM | 0.0067 µM | 0.0149 µM | 0.000207 µM | 0.00638 µM | 0.00699 µM | 0.0015 µM |
| CN(COC(=O)C(C)(C)C)c1nc(N(C)COC(=O)C(C)(C)C)nc(N(C)COC(=O)C(C)(C)C)n1 | > 100 µM | > 100 µM | 43.9 µM | > 100 µM | 47.6 µM | 98.5 µM | > 100 µM | > 100 µM | > 100 µM | > 100 µM |  |  |  |  |  |  |  |  |  |  |
| CCOC(=O)CCC(NC(=O)c1ccc(Oc2nc3cc(N)cc(N)c3nc2-c2ccccc2)cc1)C(=O)OCC (stereo unspecified) | > 100 µM | > 100 µM | > 100 µM | 87.1 µM | > 100 µM | 35.2 µM | > 100 µM | > 100 µM | 97.7 µM | 55.1 µM | > 100 µM | 49.5 µM | 34.3 µM | 36.6 µM | 40 µM | 18.5 µM | 96.2 µM | 27.5 µM | 27.9 µM | 26.7 µM |
| Nc1ncnc2c1ncn2C1OC(F)(COS(N)(=O)=O)C(O)C1O (stereo unspecified) | > 100 µM | > 100 µM | > 100 µM | > 100 µM | > 100 µM | > 100 µM | > 100 µM | > 100 µM | > 100 µM | > 100 µM | > 100 µM | > 100 µM | > 100 µM | > 100 µM | > 100 µM | > 100 µM | > 100 µM | > 100 µM | > 100 µM | > 100 µM |
| COc1cc(Br)c(/C=N/N=C(\N)NO)cc1OC | 50.2 µM | 79 µM | > 100 µM | 70.3 µM | 34.7 µM | 60.2 µM | 27.2 µM | 37.5 µM | 68.8 µM | 51 µM |  |  |  |  |  |  |  |  |  |  |
| Cc1ccc(S(=O)(=O)NC(=O)Nc2ncn[nH]2)cc1 | > 100 µM | > 100 µM | > 100 µM | > 100 µM | > 100 µM | > 100 µM | > 100 µM | > 100 µM | > 100 µM | > 100 µM |  |  |  |  |  |  |  |  |  |  |
| O=C(Nc1ccc(Br)cc1)c1cc(Br)ccc1O | > 100 µM | 2.49 µM and 5.62 µM | 4.01 µM and 7.35 µM | 8.75 µM and 5.31 µM | 7.07 µM and 18.2 µM | 1.57 µM and 4.2 µM | 4.96 µM and 10.7 µM | 4.81 µM and 22.2 µM |  | 3.58 µM and 8.43 µM | 1.09 µM and 2.5 µM | 0.333 µM and 1.21 µM | 0.483 µM and 0.779 µM | 0.791 µM and 1.73 µM | 1 µM and 2.13 µM | 0.284 µM and 0.48 µM | 0.389 µM and 0.617 µM | 0.263 µM and 0.854 µM | 0.747 µM and 1.8 µM | 0.455 µM and 2.73 µM |
| COc1ccc(C(=O)c2no[n+]([O-])c2C(=O)c2ccc(OC)cc2)cc1 | 34.4 µM | 4 µM | 14.9 µM | 29.3 µM | 11.7 µM | 3.07 µM | 33.5 µM | 0.429 µM | 32 µM | 10.4 µM | 17.2 µM | 1.9 µM | 3.98 µM | 15.2 µM | 3.5 µM | 0.82 µM | 17.2 µM | 0.205 µM | 18 µM | 3.46 µM |
| O=[N+]([O-])c1cc2c(ccc3ccccc32)o1 | 3.12 µM | 3.06 µM | 2.35 µM | 4.92 µM | 0.472 µM | 0.368 µM | 1.06 µM | 2.18 µM | 6.25 µM | 0.417 µM | 0.413 µM | 0.31 µM | 0.345 µM | 1.31 µM | 0.173 µM | 0.175 µM | 0.276 µM | 0.563 µM | 0.571 µM | 0.188 µM |
| Cc1ccccc1-c1cc(=O)c2cc(C)c(C)c(C(=O)O)c2o1 | > 100 µM | > 100 µM | > 100 µM | > 100 µM | > 100 µM | > 100 µM | > 100 µM | > 100 µM | > 100 µM | > 100 µM |  |  |  |  |  |  |  |  |  |  |
| COc1ccc(-c2cc(-c3ccco3)c(C#N)c(=O)n2C2OC(COC(C)=O)C(OC(C)=O)C(OC(C)=O)C2OC(C)=O)cc1 (stereo unspecified) | > 100 µM | > 100 µM | > 100 µM | > 100 µM and 79.2 µM | > 100 µM and 52.5 µM | > 100 µM | > 100 µM and 81 µM | > 100 µM and 60.4 µM | > 100 µM and 64.5 µM | > 100 µM |  |  | > 100 µM and 39 µM | > 100 µM and 23 µM | > 100 µM and 23.2 µM | > 100 µM and 25 µM | 35.8 µM and 8.76 µM | 42.8 µM and 11 µM | > 100 µM and 28.1 µM |  |
| O=C1c2c[n+](Cc3ccccc3)ccc2-c2nc3ccccc3c3ccnc1c23 | 1.99 µM | 9.37 µM | 6.18 µM | 0.817 µM | 0.969 µM | 1.02 µM | 0.499 µM | 1.65 µM | 2.56 µM | 2.33 µM | 0.323 µM | 1.2 µM | 0.87 µM | 0.0569 µM | 0.208 µM | 0.499 µM | 0.0673 µM | 0.518 µM | 0.568 µM | 0.865 µM |
| COC(=O)N1C=CC2=C(C)C3Nc4ccccc4C3C(C)=C2C1 (stereo unspecified) | 16.8 µM | > 100 µM | 33.6 µM | 12.6 µM | 8.29 µM | 13.1 µM | 11.6 µM | 10.7 µM | 8.71 µM | 14.3 µM |  |  |  |  |  |  |  |  |  |  |
| O=C1C2C3C=CC(C2C(=O)N1CN1CCOCC1)C1C2C(=O)N(CN4CCOCC4)C(=O)C2C31 (stereo unspecified) | > 86.9 µM | > 100 µM | > 60.1 µM | > 100 µM | > 57.2 µM | > 100 µM | > 57.5 µM | > 55.2 µM | > 100 µM | > 71.5 µM |  |  |  |  |  |  |  |  |  |  |
| CCOC(=O)C(c1ccsc1)P(=O)(OCC)OCC (stereo unspecified) | 55.8 µM | 27.9 µM | 37.4 µM | 52 µM | 26.3 µM | 60.8 µM | 66.4 µM | 16.9 µM | 77.2 µM | 33.2 µM |  |  |  |  |  |  |  |  |  |  |
| Cc1nc2ccccc2c(/C=C/c2ccc(F)cc2)c1C(=O)/C=C/c1ccccc1 | 10.3 µM | 3.83 µM | 6.2 µM | 4.27 µM | 9.26 µM | 5.03 µM | 3.71 µM | 5.79 µM | > 100 µM | 8.65 µM | 2.88 µM | 1.58 µM | 1.92 µM | 1.91 µM | 2.87 µM | 2.18 µM | 1.79 µM | 2 µM | 4.72 µM | 2.82 µM |
| CC(C)OC(=O)NNc1c(Cl)cc(Cl)cc1Cl | > 100 µM | > 100 µM | > 100 µM | > 100 µM | > 100 µM | 74.2 µM | > 100 µM | 95.4 µM | > 100 µM | > 100 µM |  |  |  |  |  |  |  |  |  |  |
| Nc1ncnc2c1ncn2C1(CO)OC(CO)C(O)C1O (stereo unspecified) | > 100 µM | > 100 µM | > 100 µM | > 100 µM | > 100 µM | > 100 µM | > 100 µM | > 100 µM | > 100 µM | > 100 µM |  |  |  |  |  |  |  |  |  |  |
| Nc1ccccc1SC(CC(=O)c1ccccc1)c1c(Cl)cccc1Cl (stereo unspecified) | 58.1 µM | 39.9 µM | 5.92 µM | 27.7 µM | 12.9 µM | 25.3 µM | 17.6 µM | 12.6 µM | 28.8 µM | 28.6 µM | 21.8 µM | 4.9 µM | 2.08 µM | 6.82 µM | 3.25 µM | 10.8 µM | 4.59 µM | 3.86 µM | 12.1 µM | 14.6 µM |
| CC(C)CC1CC2C(=O)N(c3ccccc3)C(=O)C2c2[nH]c3ccccc3c21 (stereo unspecified) | > 53.8 µM | 72.7 µM | > 31.6 µM | 47.8 µM | > 100 µM | 37 µM | > 100 µM | > 100 µM | 43.6 µM | > 100 µM |  |  |  |  |  |  |  |  |  |  |
